Test results taken from ChEMBL document CHEMBL1201862, “PubChem BioAssay data set” (2004).
Calls of active or inactive are those of the source.

How the values were obtained:
Paired box protein Pax-8 = Paired box protein Pax-8 (Homo sapiens, UniProt Q06710); test: inhibitors of PAX8-driven TPO luciferase reporter, dose response, RMG-I cells, cherry-pick (AID 687027); assay type: functional, cell-based;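 also: luciferase reporter driven by Pax8 target thyroperoxidase promoter measured by SteadyGlo luminescence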
[1] = biological target: T1, Microphthalmia-associated transcription factor (Homo sapiens, UniProt O75030); test: TRPM1 promoter luciferase signal decrease, dose response, MITF inhibitor project, cell-based, SK-MEL-5, cherry-picked, set 3 (AID 493073); assay type: functional
T1 sequence (O75030 whole entry): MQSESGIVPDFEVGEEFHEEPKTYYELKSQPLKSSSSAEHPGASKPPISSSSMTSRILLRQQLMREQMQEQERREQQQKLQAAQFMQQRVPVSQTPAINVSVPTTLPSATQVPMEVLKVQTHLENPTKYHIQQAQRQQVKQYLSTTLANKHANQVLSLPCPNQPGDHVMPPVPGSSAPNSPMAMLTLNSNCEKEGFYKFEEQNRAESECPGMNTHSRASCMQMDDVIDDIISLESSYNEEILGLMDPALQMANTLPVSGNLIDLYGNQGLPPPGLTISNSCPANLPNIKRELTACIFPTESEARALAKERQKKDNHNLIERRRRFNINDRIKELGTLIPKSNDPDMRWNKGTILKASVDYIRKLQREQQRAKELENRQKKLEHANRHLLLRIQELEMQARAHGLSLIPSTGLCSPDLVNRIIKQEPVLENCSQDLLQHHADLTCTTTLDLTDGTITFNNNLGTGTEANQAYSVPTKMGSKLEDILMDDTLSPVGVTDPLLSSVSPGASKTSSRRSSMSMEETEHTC

INS1 = test: beta cell apoptosis inhibitors, cytokine rescue, dose response, luminescence, retest (AID 449756); assay type: functional, cell-based; conditions: Rattus norvegicus;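 also: cell death triggered by IL-1 beta plus TNF-alpha plus IFN-gamma mixture; protective hits raise ATP signal compared with cytokine alone wells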
[2] = biological target: T2, Heat shock factor protein 1 (Mus musculus, UniProt P38532); test: inhibition of MG132-induced HSE-luciferase signal, confirmation, cell-based, NIH3T3, luminescence, dose retest (AID 2382); assay type: functional;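 also: NIH3T3 fibroblasts with HSF1-driven luciferase reporter stressed by proteasome inhibitor MG132; luminescence from HSF1-driven luciferase expression after 8 hours of MG132 stress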
T2 sequence (P38532 whole entry): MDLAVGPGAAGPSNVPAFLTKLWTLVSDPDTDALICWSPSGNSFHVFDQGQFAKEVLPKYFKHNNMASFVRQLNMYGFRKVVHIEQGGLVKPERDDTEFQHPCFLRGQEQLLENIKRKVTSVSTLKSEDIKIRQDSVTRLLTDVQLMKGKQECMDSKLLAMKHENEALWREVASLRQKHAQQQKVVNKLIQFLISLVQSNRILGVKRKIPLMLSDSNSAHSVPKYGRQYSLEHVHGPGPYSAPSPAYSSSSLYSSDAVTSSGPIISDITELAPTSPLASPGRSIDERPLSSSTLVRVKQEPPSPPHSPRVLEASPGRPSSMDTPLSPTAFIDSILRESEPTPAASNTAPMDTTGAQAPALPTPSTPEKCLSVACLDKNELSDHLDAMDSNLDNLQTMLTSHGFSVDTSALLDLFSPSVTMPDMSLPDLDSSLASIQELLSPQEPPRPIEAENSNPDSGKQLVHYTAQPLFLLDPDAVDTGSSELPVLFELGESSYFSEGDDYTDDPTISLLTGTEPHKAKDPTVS

Cytochrome P450 2D6 = Cytochrome P450 2D6 (Homo sapiens, UniProt P10635);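 also: CYP2D6 member of a cytochrome P450 panel assay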
Cytochrome P450 2C9 = Cytochrome P450 2C9 (Homo sapiens, UniProt P11712)
Cytochrome P450 2C19 = Cytochrome P450 2C19 (Homo sapiens, UniProt P33261); test: Cytochrome panel assay with activity outcomes. Panel member name: p450-cyp2c19 Compounds with AC50 equal or less than 10 uM are considered active; assay type: functional; conditions: read-out: AC50
Protein RecA = biological target: T3, Protein RecA (Mycobacterium tuberculosis, UniProt P9WHJ3); test: Fluorescence Cell-Free Homogeneous Dose Retest to Identify Inhibitors of RecA-Intein Splicing Activity. [Related pubchem assays (depositor defined):AID2097, AID2223, AID489010, AID492950]; assay type: functional
T3 sequence (P9WHJ3 whole entry): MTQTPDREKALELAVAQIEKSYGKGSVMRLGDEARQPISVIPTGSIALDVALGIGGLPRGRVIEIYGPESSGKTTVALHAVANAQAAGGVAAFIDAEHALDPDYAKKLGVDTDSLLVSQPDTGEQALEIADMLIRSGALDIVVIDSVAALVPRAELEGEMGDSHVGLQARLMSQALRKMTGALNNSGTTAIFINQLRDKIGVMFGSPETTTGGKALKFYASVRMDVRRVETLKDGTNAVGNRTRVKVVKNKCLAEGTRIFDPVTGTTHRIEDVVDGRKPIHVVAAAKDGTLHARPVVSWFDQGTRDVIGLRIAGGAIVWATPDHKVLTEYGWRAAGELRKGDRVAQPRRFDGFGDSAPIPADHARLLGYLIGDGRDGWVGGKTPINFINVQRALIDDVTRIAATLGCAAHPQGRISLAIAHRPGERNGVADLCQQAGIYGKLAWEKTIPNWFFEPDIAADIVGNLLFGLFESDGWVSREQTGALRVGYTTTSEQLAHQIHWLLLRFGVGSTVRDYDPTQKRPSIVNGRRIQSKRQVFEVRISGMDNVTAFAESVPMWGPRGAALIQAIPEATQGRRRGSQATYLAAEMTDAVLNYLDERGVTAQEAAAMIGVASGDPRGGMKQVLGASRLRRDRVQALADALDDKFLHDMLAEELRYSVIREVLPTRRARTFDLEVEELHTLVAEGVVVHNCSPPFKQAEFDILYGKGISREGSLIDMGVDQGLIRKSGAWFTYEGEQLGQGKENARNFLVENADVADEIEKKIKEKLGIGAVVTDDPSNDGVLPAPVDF

Leucine aminopeptidase = biological target: T4, Leucine aminopeptidase (Plasmodium falciparum 3D7, UniProt Q8IL11); test: P. falciparum M17LAP inhibitors, primary screen, biochemical, fluorogenic H-Leu-NHMec substrate, 1536-well (AID 1619); assay type: functional
T4 sequence (Q8IL11 whole entry): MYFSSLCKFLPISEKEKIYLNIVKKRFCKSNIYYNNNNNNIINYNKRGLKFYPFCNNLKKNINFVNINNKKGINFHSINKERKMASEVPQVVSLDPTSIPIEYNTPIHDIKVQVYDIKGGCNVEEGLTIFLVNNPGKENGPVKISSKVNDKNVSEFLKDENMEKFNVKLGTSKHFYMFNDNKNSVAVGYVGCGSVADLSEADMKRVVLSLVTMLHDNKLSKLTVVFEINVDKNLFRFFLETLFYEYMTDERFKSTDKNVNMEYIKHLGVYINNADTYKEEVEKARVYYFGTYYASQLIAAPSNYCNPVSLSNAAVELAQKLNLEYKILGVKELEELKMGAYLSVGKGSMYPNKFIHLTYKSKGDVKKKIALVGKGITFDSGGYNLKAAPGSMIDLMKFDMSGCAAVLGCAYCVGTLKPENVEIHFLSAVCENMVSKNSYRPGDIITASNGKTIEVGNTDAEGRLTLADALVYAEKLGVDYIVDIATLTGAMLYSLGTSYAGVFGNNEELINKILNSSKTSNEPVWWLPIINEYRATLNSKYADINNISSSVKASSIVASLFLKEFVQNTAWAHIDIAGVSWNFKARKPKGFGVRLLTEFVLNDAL

[3] = biological target: T5, Replicative DNA helicase DnaB (Mycobacterium tuberculosis, UniProt P9WMR3); test: DnaB intein splicing inhibitors, dose response, biochemical, cell-free fluorescence (AID 449749); assay type: functional
T5 sequence (P9WMR3 whole entry): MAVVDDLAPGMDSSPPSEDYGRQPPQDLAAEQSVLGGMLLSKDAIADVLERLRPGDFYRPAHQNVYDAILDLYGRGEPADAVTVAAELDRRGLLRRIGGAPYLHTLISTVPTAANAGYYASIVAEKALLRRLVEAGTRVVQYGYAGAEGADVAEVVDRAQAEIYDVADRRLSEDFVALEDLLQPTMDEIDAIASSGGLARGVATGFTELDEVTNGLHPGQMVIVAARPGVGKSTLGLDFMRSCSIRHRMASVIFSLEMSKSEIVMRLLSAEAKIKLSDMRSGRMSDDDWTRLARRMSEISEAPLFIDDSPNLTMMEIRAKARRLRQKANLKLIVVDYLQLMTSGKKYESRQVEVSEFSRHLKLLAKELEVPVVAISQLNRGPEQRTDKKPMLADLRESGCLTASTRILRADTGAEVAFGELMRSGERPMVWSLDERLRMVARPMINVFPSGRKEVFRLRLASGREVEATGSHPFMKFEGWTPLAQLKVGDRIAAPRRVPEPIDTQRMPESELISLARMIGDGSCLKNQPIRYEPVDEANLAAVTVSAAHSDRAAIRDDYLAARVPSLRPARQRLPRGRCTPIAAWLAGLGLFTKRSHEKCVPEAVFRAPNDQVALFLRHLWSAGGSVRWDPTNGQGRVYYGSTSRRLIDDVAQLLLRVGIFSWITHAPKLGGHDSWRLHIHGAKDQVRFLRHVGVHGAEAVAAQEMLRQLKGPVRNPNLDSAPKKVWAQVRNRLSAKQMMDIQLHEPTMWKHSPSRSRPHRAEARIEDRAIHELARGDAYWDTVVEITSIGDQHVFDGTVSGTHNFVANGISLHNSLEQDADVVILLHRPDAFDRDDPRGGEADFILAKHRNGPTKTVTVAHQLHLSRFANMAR

[4] = biological target: T6, Corticotropin-releasing factor receptor 2/Corticotropin-releasing factor-binding protein (Homo sapiens, UniProt P24387+Q13324); test: activators of CRF receptor 2 with binding protein – uHTS hits, confirmation (AID 602473); assay type: functional; conditions: read-out: EC50_Mean
T6 sequence (Q13324 whole entry): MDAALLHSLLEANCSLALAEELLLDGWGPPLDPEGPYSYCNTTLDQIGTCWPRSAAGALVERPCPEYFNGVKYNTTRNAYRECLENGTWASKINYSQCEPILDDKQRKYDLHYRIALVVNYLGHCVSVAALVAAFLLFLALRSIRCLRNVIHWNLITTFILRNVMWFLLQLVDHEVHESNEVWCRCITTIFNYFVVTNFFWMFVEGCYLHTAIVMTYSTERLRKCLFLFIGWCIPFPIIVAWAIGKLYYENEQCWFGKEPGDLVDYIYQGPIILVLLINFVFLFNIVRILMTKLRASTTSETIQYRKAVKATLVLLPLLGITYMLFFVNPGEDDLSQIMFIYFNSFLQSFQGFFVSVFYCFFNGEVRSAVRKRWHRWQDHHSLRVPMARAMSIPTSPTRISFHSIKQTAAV
T6 sequence (P24387 whole entry): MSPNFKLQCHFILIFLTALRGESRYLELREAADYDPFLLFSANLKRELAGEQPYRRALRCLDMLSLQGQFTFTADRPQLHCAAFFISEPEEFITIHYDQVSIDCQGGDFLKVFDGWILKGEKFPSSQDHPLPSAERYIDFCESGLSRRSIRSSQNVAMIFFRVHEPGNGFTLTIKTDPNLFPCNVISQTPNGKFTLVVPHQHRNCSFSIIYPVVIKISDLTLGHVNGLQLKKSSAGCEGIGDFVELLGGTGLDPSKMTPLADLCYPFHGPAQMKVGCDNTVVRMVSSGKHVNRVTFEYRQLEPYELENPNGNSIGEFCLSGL

BJ [5] = test: cytotoxicity toward BJ-TERT fibroblasts, dose response, cell-based, RAS-independent, luminescence (AID 1933); assay type: functional; conditions: Homo sapiens
BJ [6] = test: cytotoxicity toward BJ-TERT-LT-ST fibroblasts, dose response, cell-based, RAS-independent, luminescence (AID 1935); assay type: functional; conditions: Homo sapiens;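 also: BJ fibroblasts immortalized with TERT plus LT and ST oncogenes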
[7] = cytotoxicity toward DRD oncogenic fibroblasts, dose response, cell-based, non-viral oncogenic, luminescence (AID 1934); assay type: functional; conditions: Homo sapiens
BJ [8] = test: cells; assay type: functional, cell-based; conditions: Homo sapiens

Sequence of Cytochrome P450 2C19 (P33261 whole entry): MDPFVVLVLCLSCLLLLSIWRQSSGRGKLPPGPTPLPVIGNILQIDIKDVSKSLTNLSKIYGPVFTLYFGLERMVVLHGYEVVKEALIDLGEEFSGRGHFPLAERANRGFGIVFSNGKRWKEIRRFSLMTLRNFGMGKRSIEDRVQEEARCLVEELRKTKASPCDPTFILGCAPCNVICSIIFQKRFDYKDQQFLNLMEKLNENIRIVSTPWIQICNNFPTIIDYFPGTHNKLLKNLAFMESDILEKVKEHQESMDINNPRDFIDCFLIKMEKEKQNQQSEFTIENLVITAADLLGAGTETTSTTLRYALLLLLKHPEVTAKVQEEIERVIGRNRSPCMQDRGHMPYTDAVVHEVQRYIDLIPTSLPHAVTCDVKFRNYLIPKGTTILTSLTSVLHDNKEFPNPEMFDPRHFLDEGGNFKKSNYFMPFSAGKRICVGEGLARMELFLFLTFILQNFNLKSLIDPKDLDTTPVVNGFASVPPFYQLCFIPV
Sequence of Cytochrome P450 2C9 (P11712 whole entry): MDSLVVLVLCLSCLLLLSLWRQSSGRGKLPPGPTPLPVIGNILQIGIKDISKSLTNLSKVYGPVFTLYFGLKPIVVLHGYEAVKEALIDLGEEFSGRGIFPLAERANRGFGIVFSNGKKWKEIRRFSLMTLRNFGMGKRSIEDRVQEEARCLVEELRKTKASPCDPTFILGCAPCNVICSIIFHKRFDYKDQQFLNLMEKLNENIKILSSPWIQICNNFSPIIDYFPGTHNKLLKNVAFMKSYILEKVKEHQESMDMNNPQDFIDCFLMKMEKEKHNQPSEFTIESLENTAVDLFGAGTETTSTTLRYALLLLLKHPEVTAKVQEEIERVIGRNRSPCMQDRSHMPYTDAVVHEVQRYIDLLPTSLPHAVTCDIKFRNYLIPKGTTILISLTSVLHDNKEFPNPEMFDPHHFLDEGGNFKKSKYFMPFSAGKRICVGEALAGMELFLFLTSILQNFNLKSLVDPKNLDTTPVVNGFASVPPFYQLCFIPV
Sequence of Paired box protein Pax-8 (Q06710 whole entry): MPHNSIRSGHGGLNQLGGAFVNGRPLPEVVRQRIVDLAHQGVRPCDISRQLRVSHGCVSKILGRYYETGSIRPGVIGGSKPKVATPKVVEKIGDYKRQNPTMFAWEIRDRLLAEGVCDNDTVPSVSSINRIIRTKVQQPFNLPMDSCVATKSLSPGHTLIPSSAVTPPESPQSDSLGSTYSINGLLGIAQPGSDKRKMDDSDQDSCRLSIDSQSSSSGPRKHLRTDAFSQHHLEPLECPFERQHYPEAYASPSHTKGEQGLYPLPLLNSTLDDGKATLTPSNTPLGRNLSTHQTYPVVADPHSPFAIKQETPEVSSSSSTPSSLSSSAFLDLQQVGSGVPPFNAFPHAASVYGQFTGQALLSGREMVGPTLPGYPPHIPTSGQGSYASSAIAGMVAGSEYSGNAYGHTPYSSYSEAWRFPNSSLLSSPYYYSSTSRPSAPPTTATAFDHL
Sequence of Cytochrome P450 2D6 (P10635 whole entry): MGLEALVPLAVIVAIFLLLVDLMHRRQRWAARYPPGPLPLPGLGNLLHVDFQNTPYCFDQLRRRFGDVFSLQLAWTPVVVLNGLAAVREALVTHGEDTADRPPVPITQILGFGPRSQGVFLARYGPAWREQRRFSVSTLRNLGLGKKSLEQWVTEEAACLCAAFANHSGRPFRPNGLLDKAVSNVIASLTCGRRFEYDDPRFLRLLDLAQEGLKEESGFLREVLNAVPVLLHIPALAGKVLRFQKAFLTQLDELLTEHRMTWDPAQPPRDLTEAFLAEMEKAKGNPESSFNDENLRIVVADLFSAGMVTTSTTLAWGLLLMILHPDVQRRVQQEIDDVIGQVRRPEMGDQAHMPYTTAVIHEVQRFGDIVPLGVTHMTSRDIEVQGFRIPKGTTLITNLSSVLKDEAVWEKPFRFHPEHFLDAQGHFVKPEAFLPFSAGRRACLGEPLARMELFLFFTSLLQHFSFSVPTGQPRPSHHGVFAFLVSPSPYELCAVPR

## Cc1cc(C(C)(C)C)cc(C)c1C[n+]1c2n(c3ccc(C(F)(F)F)cc31)CCCCC2
Paired box protein Pax-8
  AC50: 4.37 µM (active)
[1]
  AC50: 7.55 µM (active)
INS1
  AC50: 3.43 µM (active)

## CC1(C)Cc2c(sc(NC(=O)c3ccc4ncsc4c3)c2C(N)=O)C(C)(C)N1
[1]
  AC50: 10.1 µM (active)
[2]
  EC50: > 195 µM (not active)

## Cc1c(C)n(C)c2ccc(C(=O)Nc3cccc4ccccc34)cc12
Cytochrome P450 2D6
  AC50: 11.2 µM (inconclusive)
Cytochrome P450 2C9
  AC50: inconclusive

## CCOC(=O)C1=NOC(CNC(=O)C2=NOC(CNC(=O)c3c(-c4ccccc4Cl)noc3C)C2)C1 (stereo unspecified)
Cytochrome P450 2C9
  AC50: inconclusive
Cytochrome P450 2C19
  AC50: 20 µM (inconclusive)

## COc1ccc(CNC(=O)C2CC(c3cccc([N+](=O)[O-])c3)=NO2)cc1 (stereo unspecified)
Cytochrome P450 2C9
  AC50: inconclusive

## CCOc1ccc(-n2c(O)nnc2SCC(=O)Nc2ccccc2C)cc1
Cytochrome P450 2C9
  AC50: inconclusive

## CCc1cccc(NC(=O)CSCc2cc(O)[nH]n2)c1
Protein RecA
  EC50: 2.37 µM (active)
Leucine aminopeptidase
  IC50: 25.9 µM (active)
[3]
  AC50: 3.37 µM (active)

## C=CCSc1nc(NC)c2sccc2n1
Cytochrome P450 2C9
  AC50: inconclusive

## Cc1cc2c(C(F)(F)F)cc(=O)oc2c2c1NCCC2
[4]
  EC50: 1.12 µM (active)
Cytochrome P450 2C9
  AC50: inconclusive
Cytochrome P450 2C19
  AC50: 1.26 µM (inconclusive)

## COc1ccccc1CNC(=O)C1CCN(S(=O)(=O)N2CC(C)CC(C)C2)CC1 (stereo unspecified)
Cytochrome P450 2C9
  AC50: inconclusive
Cytochrome P450 2C19
  AC50: 39.8 µM (inconclusive)

## COc1cc2c(c(OC)c1OC)-c1ccc(OC)c(=O)cc1C(NC(C)=O)CC2 (stereo unspecified)
BJ [5]
  EC50: 348 nM (active)
Paired box protein Pax-8
  AC50: < 0.26 µM (active)
BJ [6]
  EC50: 249 nM (active)
[7]
  EC50: 351 nM (active)
BJ [8]
  EC50: 627 nM (inconclusive)
[1]
  AC50: 0.056 µM (active)
